In US12655131B2, “Pyrazinecarboxamide analog compounds for use in treating cancer” (NOVAPANO, LLC, priority 2019, dated 2026):

Columns and labels:
[1] = Microsome stability, human liver microsomes; assay type: in vitro ADME; conditions: NADPH, 37 °C, pH 7.4, read-out: hLM CLint (μg/min/mg)
Experimental: (§1) In a 96 deep well plate, 2.5 μL of 20 μM of each test compound in potassium phosphate buffer (pH 7,4) with 2% 1:9 DMSO:acetonitrile were added to 5 μL of 5 mg/mL microsomes (human liver microsomes (hLM), rat liver microsomes (rLM), or mouse liver microsomes (mLM)) and 37.5 μL of 100 mM prewarmed phosphate buffer (pH 7.4). Time point 0 (T0) samples were immediately quenched with 200 μL of chilled acetonitrile containing 50 ng/mL of internal standard. 5 4, of 10 mM NADPH was added to all other samples to start the reaction. The plate was incubated in a reciprocating water bath at 37 ° C. on 50 rpm for the duration of the assay. The remaining samples were quenched with 200 μL of chilled acetonitrile containing 50 ng/mL of internal standard at various timepoints. The samples were analyzed by LC-MS/MS (Sciex API 4500 QTrap). The % remaining, terminal elimination rate constant (K), half-life (t1/2), and intrinsic clearance (CLint) were calculated.

[2] = Microsome stability, rat liver microsomes; assay type: in vitro ADME; conditions: NADPH, 37 °C, pH 7.4, read-out: rLM CLint (μg/min/mg)
Experimental: as §1

[3] = tested on: HCT 116 colorectal carcinoma cells; test: Cell proliferation assay (resazurin) in HCT 116 cells; assay type: cell-based; conditions: Homo sapiens, 72 hr compound incubation, inhibition of proliferation
Experimental: (§2) HCT 116 colorectal carcinoma cells (ECACC/Sigma-Aldrich #91091005) were seeded in medium (McCoy's 5a+10% FBS) at a cell count of 1500 cells per 100 μL per well in a 96 well edge plate (ThermoFisher #167425). Cells were cultured at 37° C. for 24 hr in 5% CO2 environment (culture conditions) in a Nuaire incubator (humidified). Serially diluted test compounds (100 μL) within the desired testing concentration range (e.g., 0.014-30 μM) were added to the culture plate and the cells were further incubated in culture conditions for 72 hr. The experiment was terminated at the designated incubation time by replacing the medium with 100 μL, of 1 mM resazurin (Sigma-Aldrich #R7017) prepared in culture medium, and the plates were further incubated in culture conditions for 4-6 hr. Fluorescence was recorded using a multimodal plate reader (Biotek Synergy Neo) at an excitation wavelength of 535 nm and emission wavelength of 590 nm to obtain relative fluorescence units.
(§3) Data were analyzed as follows: the background fluorescence (blank containing only medium) value was subtracted from each reading and normalized with the vehicle control ([…]treated cells) to obtain percent survival/proliferation. Percent survival was subtracted from 100 to get the percent inhibition of proliferation which was used to calculate IC50 values.

[4] = tested on: MIA PaCa-2 human pancreatic carcinoma cells; test: Cell proliferation assay (resazurin) in MIA PaCa-2 cells; assay type: cell-based; conditions: 96 hr compound incubation, inhibition of proliferation
Experimental: as §2, §3
Testing in MIA PaCa-2 human pancreatic carcinoma cells (ATCC® CRL-1420™) was done identically, except that the medium used was DMFM+10% FBS+2.5% horse serum, the cells were seeded at a cell count of 3000 cells per 100 μL per well and the test compound incubation time was 72 or 96 hr. The potency of compounds in other cell lines may be determined in an analogous manner.

[5] = Microsome stability, mouse liver microsomes; assay type: in vitro ADME; conditions: NADPH, 37 °C, pH 7.4, read-out: mLM CLint (μg/min/mg)
Experimental: as §1

Row | Structure (SMILES) | microsomal CLint at 1 µM [1] [µL/min/mg] | microsomal CLint at 1 µM [2] [µL/min/mg] | IC50 [3] [µM] | IC50 [4] [µM] | microsomal CLint at 1 µM [5] [µL/min/mg]
1 | N/C(=N\C(=O)c1nc(Cl)c(NCc2ccc(I)cc2)nc1N)NCC1CCN(CCc2ccccc2)CC1 [Compound 51, 3-amino-N-(amino(((1-phenethylpiperidin-1-yl)methyl)amino)methylene)-6-chloro-5-((4-iodobenzyl)amino)pyrazine-2-carboxamide] | 52 | 29 | 0.69 | 1.9 | 67
2 | Nc1nc(NCc2ccc(I)cc2)c(Cl)nc1C(=O)NCCN1CCN(Cc2ccccc2)CC1 [Compound 1, 3-amino-N-(2-(4-benzylpiperazin-1-yl)ethyl)-6-chloro-5-(4-iodobenzylamino) pyrazine-2-carboxamide] | 258 | 201 | 16.3 | 30.9 | 176
3 | N/C(=N\C(=O)c1nc(Cl)c(NCc2ccc(I)cc2)nc1N)NCCCOc1ccc(Cl)cc1 [Compound 52, 3-amino-4-(amino(3-(4-chlorophenoxy)propylamino)methylene)-6-chloro-5-(4-iodobenzylamino)pyrazine-2-carboxamide] | 20 | 49 | 1.33 | 2.92 | 81
